From BindingDB's records for doi:10.1016/s0960-894x(04)00332-4 (Aventis Pharma, 2004)

How the values were obtained:
[1] = biological target: Beta-lactamase P99 (Enterobacter cloacae) (UniProt P05364); test: Inhibition of hydrolysis of nitrocefin after 5 min pre-incubation with P99 beta-lactamases (class C)
[2] = biological target: Beta-lactamase P99 (Enterobacter cloacae) (UniProt P05364); test: Time dependent inhibition of hydrolysis of nitrocefin after 5 min pre-incubation with P99 beta-lactamases (class C)

Beta-lactamase P99 (Enterobacter cloacae), sequence (P05364 whole entry, looked up): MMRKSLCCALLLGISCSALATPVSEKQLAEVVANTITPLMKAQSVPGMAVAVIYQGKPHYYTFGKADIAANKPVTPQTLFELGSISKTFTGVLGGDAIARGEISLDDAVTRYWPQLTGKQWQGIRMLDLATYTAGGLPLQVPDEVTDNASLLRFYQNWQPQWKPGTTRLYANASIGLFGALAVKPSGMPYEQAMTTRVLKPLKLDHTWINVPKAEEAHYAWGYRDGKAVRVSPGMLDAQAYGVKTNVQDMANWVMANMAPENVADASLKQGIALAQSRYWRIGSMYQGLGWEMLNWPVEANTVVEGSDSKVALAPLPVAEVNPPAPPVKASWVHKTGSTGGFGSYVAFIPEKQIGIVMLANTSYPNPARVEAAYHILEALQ

## COC1=C[C@@H]2CC(=O)N(C2)C1C(=O)O (stereo partly drawn) [(1S,5S)-3-Methoxy-7-oxo-1-aza-bicyclo[3.2.1]oct-3-ene-2-carboxylic acid]
[1]
  IC50: 140 µM

## COC1=C[C@@H]2CC(=O)N(C2)C1C(=O)OCc1ccc([N+](=O)[O-])cc1 (stereo partly drawn) [(1S,5S)-3-Methoxy-7-oxo-1-aza-bicyclo[3.2.1]oct-3-ene-2-carboxylic acid 4-nitro-benzyl ester]
[1]
  IC50: 25 µM

## COC1=C(C(=O)OCc2ccc([N+](=O)[O-])cc2)N2C[C@@H](CC2=O)C1 [(1S,5R)-3-Methoxy-7-oxo-1-aza-bicyclo[3.2.1]oct-2-ene-2-carboxylic acid 4-nitro-benzyl ester]
[1]
  IC50: 160 µM

## CC[C@@H]1C(=O)N2C[C@@H]1CC(OC)=C2C(=O)OCc1ccc([N+](=O)[O-])cc1 [(1S,5R,6S)-6-Ethyl-3-methoxy-7-oxo-1-aza-bicyclo[3.2.1]oct-2-ene-2-carboxylic acid 4-nitro-benzyl ester]
[1]
  IC50: 300 µM

## CC[C@@H]1C(=O)N2C[C@@H]1CC(OC)=C2C(=O)O [(1S,5R,6S)-6-Ethyl-3-methoxy-7-oxo-1-aza-bicyclo[3.2.1]oct-2-ene-2-carboxylic acid]
[1]
  IC50: 100 µM

## CC[C@@H]1C(=O)N2C[C@@H]1C=C(OC)C2C(=O)OCc1ccc([N+](=O)[O-])cc1 (stereo partly drawn) [(1S,5R,6S)-6-Ethyl-3-methoxy-7-oxo-1-aza-bicyclo[3.2.1]oct-3-ene-2-carboxylic acid 4-nitro-benzyl ester]
[2]
  IC50: 210 µM
